Source: US9840510B1, “Pyrazolo[1,5-a]pyrimidinyl carboxamide compounds and their use in the treatment of medical disorders” (Lysosomal Therapeutics Inc., priority 2016, dated 2017)
Converted amounts (≈) assume the structure as drawn.

assay: Compound solubility in water; assay type: physicochemical

Structure (SMILES) | solubility
Cc1cc(-c2ccc(Cl)nc2)nc2c(C(=O)N[C@H](C3CC3)C(F)(F)F)cnn12 [III-117] | 0.8 µg/mL (≈ 1.95 µM)
Cc1cc(-c2cncc(Cl)c2)nc2c(C(=O)NC(C3CC3)C(F)(F)F)cnn12 (stereo not drawn) [III-119] | 0.08 µg/mL (≈ 0.195 µM)
Cc1cc(-c2cncc(Cl)c2)nc2c(C(=O)N[C@H](C3CC3)C(F)(F)F)cnn12 [III-120] | 0.7 µg/mL (≈ 1.71 µM)
Cc1cc(-c2cncc(Cl)c2)nc2c(C(=O)N[C@@H](C3CC3)C(F)(F)F)cnn12 [III-121] | 0.7 µg/mL (≈ 1.71 µM)
Cc1cc(-c2cnccc2Cl)nc2c(C(=O)NC(C3CC3)C(F)(F)F)cnn12 (stereo not drawn) [III-122] | 2.1 µg/mL (≈ 5.12 µM)
Cc1cc(-c2cccnc2Cl)nc2c(C(=O)NC(C3CC3)C(F)(F)F)cnn12 (stereo not drawn) [III-123] | 2.1 µg/mL (≈ 5.12 µM)
Cc1cc(-c2cnccc2F)nc2c(C(=O)NC(C3CC3)C(F)(F)F)cnn12 (stereo not drawn) [III-124] | 1.9 µg/mL (≈ 4.83 µM)
Cc1cc(-c2cncc(F)c2)nc2c(C(=O)NC(C3CC3)C(F)(F)F)cnn12 (stereo not drawn) [III-125] | 3.4 µg/mL (≈ 8.64 µM)
Cc1cc(-c2cncc(F)c2)nc2c(C(=O)N[C@H](C3CC3)C(F)(F)F)cnn12 [III-126] | 1.8 µg/mL (≈ 4.58 µM)
Cc1cc(-c2cncc(F)c2)nc2c(C(=O)N[C@@H](C3CC3)C(F)(F)F)cnn12 [III-127] | 2.5 µg/mL (≈ 6.36 µM)
Cc1cc(-c2cc(F)cc(C#N)c2)nc2c(C(=O)N[C@@H](C)C3CC3)cnn12 [III-128] | 3 µg/mL (≈ 8.26 µM)
COc1cc(C#N)cc(-c2cc(C)n3ncc(C(=O)N[C@@H](C)C4CC4)c3n2)c1 [III-129] | 0.02 µg/mL (≈ 0.0533 µM)
Cc1cc(-c2cccc(Cl)n2)nc2c(C(=O)N[C@@H](C)C3CC3)cnn12 [III-131] | 0.6 µg/mL (≈ 1.69 µM)
Cc1cc(-c2cccc(C#N)n2)nc2c(C(=O)NC(C3CC3)C(F)(F)F)cnn12 (stereo not drawn) [III-133] | 0.2 µg/mL (≈ 0.5 µM)
Cc1cc(-c2cccc(F)n2)nc2c(C(=O)N[C@@H](C)C3CC3)cnn12 [III-134] | 0.8 µg/mL (≈ 2.36 µM)
Cc1cc(-c2cccc(F)n2)nc2c(C(=O)N[C@H](C)C3CC3)cnn12 [III-135] | 1.5 µg/mL (≈ 4.42 µM)
Cc1cc(-c2ccccc2)nc2c(C(=O)N[C@@H](C)C3CC3)cnn12 [III-136] | 5.1 µg/mL (≈ 15.9 µM)
COc1cc(F)cc(-c2cc(C)n3ncc(C(=O)N[C@@H](C)C4CC4)c3n2)c1 [III-137] | 0.8 µg/mL (≈ 2.17 µM)
COc1c(F)cccc1-c1cc(C)n2ncc(C(=O)N[C@@H](C)C3CC3)c2n1 [III-138] | 2.5 µg/mL (≈ 6.79 µM)
COc1c(F)cccc1-c1cc(C)n2ncc(C(=O)NC(C3CC3)C(F)(F)F)c2n1 (stereo not drawn) [III-139] | 0.1 µg/mL (≈ 0.237 µM)
COc1c(F)cccc1-c1cc(C)n2ncc(C(=O)NC(C)C(F)(F)F)c2n1 (stereo not drawn) [III-140] | 1.1 µg/mL (≈ 2.78 µM)

Structure (SMILES) | solubility
COc1c(C#N)cccc1-c1cc(C)n2ncc(C(=O)NC(C3CC3)C(F)(F)F)c2n1 (stereo not drawn) [III-141] | 1.1 µg/mL (≈ 2.56 µM)
COc1c(C#N)cccc1-c1cc(C)n2ncc(C(=O)NC(C)C(F)(F)F)c2n1 (stereo not drawn) [III-142] | 2.2 µg/mL (≈ 5.45 µM)
COc1c(C#N)cccc1-c1cc(C)n2ncc(C(=O)N[C@@H](C)C3CC3)c2n1 [III-143] | 17.4 µg/mL (≈ 46.3 µM)
COc1cc(-c2cc(C)n3ncc(C(=O)N[C@@H](C)C4CC4)c3n2)ccc1F [III-145] | 0.2 µg/mL (≈ 0.543 µM)
COc1cc(F)ccc1-c1cc(C)n2ncc(C(=O)N[C@@H](C)C3CC3)c2n1 [III-146] | 0.9 µg/mL (≈ 2.44 µM)
COc1cc(-c2cc(C)n3ncc(C(=O)NC(C4CC4)C(F)(F)F)c3n2)ccc1F (stereo not drawn) [III-147] | 0.4 µg/mL (≈ 0.947 µM)
COc1cc(-c2cc(C)n3ncc(C(=O)NC(C)C(F)(F)F)c3n2)ccc1F (stereo not drawn) [III-148] | 1.2 µg/mL (≈ 3.03 µM)
COc1cc(F)ccc1-c1cc(C)n2ncc(C(=O)NC(C3CC3)C(F)(F)F)c2n1 (stereo not drawn) [III-149] | 1.1 µg/mL (≈ 2.6 µM)
COc1cc(F)ccc1-c1cc(C)n2ncc(C(=O)NC(C)C(F)(F)F)c2n1 (stereo not drawn) [III-150] | 0.7 µg/mL (≈ 1.77 µM)
Cc1cc(-c2ccc(F)cc2C#N)nc2c(C(=O)NC(C3CC3)C(F)(F)F)cnn12 (stereo not drawn) [III-151] | 0.1 µg/mL (≈ 0.24 µM)
Cc1cc(-c2ccc(F)cc2C#N)nc2c(C(=O)N[C@@H](C)C3CC3)cnn12 [III-152] | 0.5 µg/mL (≈ 1.38 µM)
Cc1cc(-c2ccc(F)cc2C#N)nc2c(C(=O)N[C@H](C)C3CC3)cnn12 [III-153] | 4.5 µg/mL (≈ 12.4 µM)
Cc1cc(-c2ccc(F)cc2C#N)nc2c(C(=O)NC(C)C(F)(F)F)cnn12 (stereo not drawn) [III-154] | 0.7 µg/mL (≈ 1.79 µM)
Cc1cc(-c2ccc(F)cc2C#N)nc2c(C(=O)N[C@@H](C)C(F)(F)F)cnn12 [III-156] | 0.3 µg/mL (≈ 0.767 µM)
Cc1cc(-c2ccc(F)c(C#N)c2)nc2c(C(=O)N[C@@H](C)C3CC3)cnn12 [III-157] | 2.9 µg/mL (≈ 7.98 µM)
Cc1cc(-c2ccc(F)c(C#N)c2)nc2c(C(=O)NC(C3CC3)C(F)(F)F)cnn12 (stereo not drawn) [III-158] | 0.3 µg/mL (≈ 0.719 µM)
Cc1cc(-c2ccc(F)c(C#N)c2)nc2c(C(=O)NC(C)C(F)(F)F)cnn12 (stereo not drawn) [III-159] | 3.8 µg/mL (≈ 9.71 µM)
Cc1cc(-c2ccc(F)c(C(N)=O)c2)nc2c(C(=O)N[C@@H](C)C3CC3)cnn12 [III-160] | 1.1 µg/mL (≈ 2.88 µM)
Cc1cc(-c2cccc(C(N)=O)n2)nc2c(C(=O)NC(C3CC3)C(F)(F)F)cnn12 (stereo not drawn) [III-161] | 1 µg/mL (≈ 2.39 µM)
Cc1cc(-c2ccc(F)c(C(N)=O)c2)nc2c(C(=O)NC(C3CC3)C(F)(F)F)cnn12 (stereo not drawn) [III-162] | 1 µg/mL (≈ 2.3 µM)
Cc1cc(-c2ccc(F)cc2)nc2c(C(=O)NC(C3CC3)C(F)(F)F)cnn12 (stereo not drawn) [III-163] | 0.4 µg/mL (≈ 1.02 µM)
